For 33 molecules, IC50 results are on record in patent US20250313548A1 (Actio Biosciences, Inc., priority 2023, published 2025).

Some results are limits rather than exact numbers.

human, KCNT1, sequence (Q5JUK3 whole entry): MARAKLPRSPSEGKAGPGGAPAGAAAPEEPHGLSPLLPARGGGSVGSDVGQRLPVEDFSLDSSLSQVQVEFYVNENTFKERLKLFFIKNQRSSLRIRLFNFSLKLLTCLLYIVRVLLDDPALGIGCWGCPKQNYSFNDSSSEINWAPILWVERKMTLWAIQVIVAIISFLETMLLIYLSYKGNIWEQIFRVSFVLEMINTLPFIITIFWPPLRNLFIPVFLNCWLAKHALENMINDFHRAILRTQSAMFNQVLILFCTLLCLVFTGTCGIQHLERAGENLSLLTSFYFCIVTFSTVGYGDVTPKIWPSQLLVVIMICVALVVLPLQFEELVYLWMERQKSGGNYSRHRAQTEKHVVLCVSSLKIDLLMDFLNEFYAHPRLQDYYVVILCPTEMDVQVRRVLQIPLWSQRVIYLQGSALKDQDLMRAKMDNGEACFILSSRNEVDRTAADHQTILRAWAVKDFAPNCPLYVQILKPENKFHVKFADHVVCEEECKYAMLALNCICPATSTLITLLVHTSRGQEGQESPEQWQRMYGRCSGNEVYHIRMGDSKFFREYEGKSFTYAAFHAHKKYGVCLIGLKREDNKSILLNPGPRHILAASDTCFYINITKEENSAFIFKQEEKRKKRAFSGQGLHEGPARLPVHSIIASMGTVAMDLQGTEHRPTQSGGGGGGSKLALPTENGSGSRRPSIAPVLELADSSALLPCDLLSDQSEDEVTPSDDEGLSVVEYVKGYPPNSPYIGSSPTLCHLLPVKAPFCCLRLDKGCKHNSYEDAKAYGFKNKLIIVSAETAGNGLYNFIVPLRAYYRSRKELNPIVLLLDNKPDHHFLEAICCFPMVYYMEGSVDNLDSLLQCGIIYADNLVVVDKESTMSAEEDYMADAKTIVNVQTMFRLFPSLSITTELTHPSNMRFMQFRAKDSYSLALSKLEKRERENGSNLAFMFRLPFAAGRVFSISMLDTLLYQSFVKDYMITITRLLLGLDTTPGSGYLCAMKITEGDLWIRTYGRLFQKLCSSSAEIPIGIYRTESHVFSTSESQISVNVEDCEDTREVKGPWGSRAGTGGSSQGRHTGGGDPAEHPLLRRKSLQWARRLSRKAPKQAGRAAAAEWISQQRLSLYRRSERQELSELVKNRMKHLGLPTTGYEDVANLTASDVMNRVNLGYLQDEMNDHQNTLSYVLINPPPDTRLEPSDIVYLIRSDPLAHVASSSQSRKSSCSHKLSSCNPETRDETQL

The target in this experiment is human, KCNT1 (Homo sapiens (Human), UniProt Q5JUK3). Kind of experiment: FLIPR Tl/K Flux Assay. It is filed as cell-based. To be noted: HEK293 cells stably expressing human KCNT1; Tl+ flux stimulated with EC80 of agonist Loxapine. The protocol:
HEK293 cells stably expressing human, KCNT1 were cultured in DMEM, 10% FBS, 100 U/mL penicillin-streptomycin and […] puromycin for selection purposes. One day before the assay, cells were detached using TrypLE™ Express and counted using a cell counter. Only cells with >85% viability were used for the assay. […] The cells were incubated overnight at 37° C., 5% (v/v) CO2.
On the day of the assay, the reagents were prepared following the FLIPR® Potassium Assay Kit manual: prepare 2× dye solution, dilute the dye with assay buffer (20 mM HEPES in 1× HBSS, PH7.4), addition of probenecid to a final concentration of 5 mM, and vortexed vigorously for 1-2 minutes. The cell plate was flicked to remove medium and tapped on paper towels to remove excess media. […] The cell plate was moved to a plate shaker, agitated at 600 rpm for two minutes, and then incubated at 25° C. for one hour.
The compounds were prepared in DMSO and transferred to a 384-well compound plate (PP, low binding), referred to as a source plate. Reference agonist (300 nM) compound and test inhibitor (10 mM) compounds were added to the compound plate and a 4-fold serial dilution was performed in DMSO. Using an ECHO dispenser, compounds were dispensed at 90 nL/well from the source plate to a 384-well compound plate (PP, low binding). After the dispensing was complete, 30 µL/well assay buffer was added to the compound plate and mixed for two minutes on a plate shaker. The cell plate, compound plate, and tips were loaded into the FLIPR instrument, and a transfer of 10 μl of 3× compound to the cell plate was initiated. The treated cell plate was kept at in the dark at 25° C. for 30 minutes. Chloride-free stimulation buffer containing 4× 2 mM Tl+ and 4×EC80 of agonist Loxapine was loaded into a 384-well compound plate (PP, low binding). After the 30-minute incubation, the cell plate, compound plate containing stimulation buffer, and FLIPR tips were loaded into the FLIPR instrument. After a baseline read, the FLIPR initiates a transfer of 10 μL of stimulation buffer containing Loxapine to the cell plate. The plate was read for 160 sec with 1 second interval reads to obtain the data.
The normalized fluorescence reading (RFU) was calculated as shown follow, while Fmax and Fmin stand for maximum and minimum of signal during defined time window. The IC50 was calculated by fitting % inhibition against log of compound concentrations with Hill equation using XLfit.
Usually IC50 stands for the midpoint of a concentration-inhibition curve. As for `COc1cc(C(=O)NC2CCCc3nn(-c4ccnc(C(F)(F)F)c4)cc32)n(C)n1` (racemic) [Compound I-21, (rac)-3-Methoxy-1-methyl-N-(2-(2-(trifluoromethyl)pyridin-4-yl)-4,5,6,7-tetrahydro-2H-indazol-4-yl)-1H-pyrazole-5-carboxamide], the IC50 is over 1 µM. Next, `CC(F)(F)c1cc(-c2cc3n(n2)CC[C@@H]3NC(=O)c2cccc(C#N)c2)ccn1` [Compound I-261a, (S)-3-Cyano-N-(2-(2-(1,1-difluoroethyl)pyridin-4-yl)-5,6-dihydro-4H-pyrrolo[1,2-b]pyrazol-4-yl)benzamide]: under 0.25 µM; `CCOc1cc(-n2cc3c(n2)CCCC3NC(=O)c2ccccc2)ccn1` (stereo not drawn) [Compound I-27]: over 1 µM.

For `CC(C)c1nc(C(=O)N[C@H]2CCCn3nc(-c4ccnc(C(F)(F)F)c4)cc32)co1` [Compound I-441a], the IC50 was under 0.25 µM. Next, `COc1cc(-c2cc3n(n2)CC[C@@H]3NC(=O)c2cc(F)cc(F)c2)ccn1` [Compound I-447a]: under 0.25 µM; `O=C(N[C@H]1CCc2nn(-c3ccnc(C(F)(F)F)c3)cc21)c1ccccc1` [Compound I-91a]: under 0.25 µM; `O=C(N[C@H]1CCCc2oc(-c3ccnc(C4CC4)c3)nc21)c1cnn(C(F)(F)F)c1C(F)(F)F` [Compound I-530a, (S)—N-(2-(2-cyclopropylpyridin-4-yl)-4,5,6,7-tetrahydrobenzo[d]oxazol-4-yl)-1,5-bis(trifluoromethyl)-1H-pyrazole-4-carboxamide]: under 0.25 µM.

Molecule `CC(C)(O)c1cc(F)cc(C(=O)N[C@H]2CCn3nc(-c4ccnc(C(F)(F)F)c4)cc32)c1` [Compound I-570a, (S)-3-Fluoro-5-(2-hydroxypropan-2-yl)-N-(2-(2-(trifluoromethyl)pyridin-4-yl)-5,6-dihydro-4H-pyrrolo[1,2-b]pyrazol-4-yl)benzamide] had an IC50 of under 0.25 µM.

`Cc1cc(C#N)cc(C(=O)NC2CCn3nc(-c4ccnc(C5CC5)c4)cc32)c1` (stereo not drawn) [Compound I-306a, 3-Cyano-N-(2-(2-cyclopropylpyridin-4-yl)-5,6-dihydro-4H-pyrrolo[1,2-b]pyrazol-4-yl)-5-methylbenzamide] registered an IC50 of under 0.25 µM.

The molecule `O=C(N[C@H]1CCCc2nc(-c3ccnc(C4CC4)c3)oc21)c1cc(Cl)cc(Cl)c1` [Compound I-153a, (S)-3,5-Dichloro-N-(2-(2-cyclopropylpyridin-4-yl)-4,5,6,7-tetrahydrobenzo[d]oxazol-7-yl)benzamide] displayed a half-inhibitory concentration (IC50) of under 0.25 µM. Next, `O=C(N[C@@H]1CCCc2nnc(-c3ccnc(C(F)(F)F)c3)cc21)c1cc(F)cc(F)c1` [Compound I-453b]: over 1 µM; `O=C(N[C@H]1CCCCc2nn(-c3ccnc(C(F)(F)F)c3)cc21)c1cc(Cl)cc(C(F)(F)F)c1` (single isomer, unassigned) [Compound I-109a]: under 0.25 µM. Next, `Cn1nc(C(F)(F)F)cc1C(=O)N[C@H]1CCCc2nc(-c3cc(C4CC4)ncc3F)oc21` [Compound I-166a, (S)—N-(2-(2-Cyclopropyl-5-fluoropyridin-4-yl)-4,5,6,7-tetrahydrobenzo[d]oxazol-7-yl)-1-methyl-3-(trifluoromethyl)-1H-pyrazole-5-carboxamide]: under 0.25 µM; `COc1cc(-c2nc3c(o2)[C@@H](NC(=O)c2cc(Cl)cc(Cl)c2)CCC3)c(Cl)cn1` [Compound I-162a, (S)-3,5-Dichloro-N-(2-(5-chloro-2-methoxypyridin-4-yl)-4,5,6,7-tetrahydrobenzo[d]oxazol-7-yl)benzamide]: under 0.25 µM; `COc1cc(-c2cc3n(n2)CC[C@@H]3NC(=O)c2cc(C#N)cc(C(F)(F)F)c2)ccn1` [Compound I-285a, (S)-3-Cyano-N-(2-(2-methoxypyridin-4-yl)-5,6-dihydro-4H-pyrrolo[1,2-b]pyrazol-4-yl)-5-(trifluoromethyl)benzamide]: under 0.25 µM. Next, `O=C(N[C@H]1CCCn2nc(-c3cc(C(F)(F)F)ncc3Cl)cc21)c1ccnc(OC(F)(F)F)c1` [Compound I-179a, (S)-N-(2-(5-Chloro-2-(trifluoromethyl)pyridin-4-yl)-4,5,6,7-tetrahydropyrazolo[1,5-a]pyridin-4-yl)-2-(trifluoromethoxy)isonicotinamid]: under 0.25 µM. The molecule `COc1ccccc1C(=O)N[C@H]1CCc2nn(-c3ccnc(C(F)(F)F)c3)cc21` [Compound I-94a] came in with an IC50 of under 0.25 µM. Turning to `Cn1nc(C(F)(F)F)cc1C(=O)N[C@@H]1CCCCc2nn(-c3ccnc(C4CC4)c3)cc21` [Compound I-56b], the IC50 was 0.5 to 1 µM.

For the molecule `O=C(N[C@H]1CCCc2cnc(-c3ccnc(C(F)(F)F)c3)cc21)c1cc2cccnn2c1` (single isomer, unassigned) [I-268*], the half-inhibitory concentration (IC50) is over 1 µM. Next, `COc1cc(-c2cc3n(n2)CCCC[C@@H]3NC(=O)c2ccc(F)c(C#N)c2)ccn1` [Compound I-256a, (S)-3-Cyano-4-fluoro-N-(2-(2-methoxypyridin-4-yl)-5,6,7,8-tetrahydro-4H-pyrazolo[1,5-a]azepin-4-yl)benzamide]: under 0.25 µM; `O=C(N[C@H]1CCn2nc(-c3ccnc(C(F)(F)F)c3)cc21)c1cccc(C(F)(F)F)c1` [Compound I-289a, (S)-3-(Trifluoromethyl)-N-(2-(2-(trifluoromethyl)pyridin-4-yl)-5,6-dihydro-4H-pyrrolo[1,2-b]pyrazol-4-yl)benzamide]: under 0.25 µM. In the case of `COc1cc(-c2nc3c(o2)[C@@H](NC(=O)c2ccnc(OC(F)(F)F)c2)CCC3)c(Cl)cn1` [Compound I-163a], the IC50 is under 0.25 µM. Next, `CCc1cc(F)cc(C(=O)N[C@H]2CCc3nn(-c4ccnc(C(F)(F)F)c4)cc32)c1` [Compound I-127a, (S)-3-Ethyl-5-fluoro-N-(2-(2-(trifluoromethyl)pyridin-4-yl)-2,4,5,6-tetrahydrocyclopenta[c]pyrazol-4-yl)benzamide]: under 0.25 µM. In turn, `O=C(N[C@H]1CCCn2nc(-c3cc(C(F)(F)F)ncc3F)cc21)c1cnc2ccccc2n1` [Compound I-195a, (S)-N-(2-(5-Fluoro-2-(trifluoromethyl)pyridin-4-yl)-4,5,6,7-tetrahydropyrazolo[1,5-a]pyridin-4-yl)quinoxaline-2-carboxamide] showed an IC50 of under 0.25 µM. Next, `COc1cc(-c2cc3n(n2)CCCC[C@@H]3NC(=O)c2cc(F)cc(C#N)c2)c(F)cn1` [Compound I-183a, (S)-3-Cyano-5-fluoro-N-(2-(5-fluoro-2-methoxypyridin-4-yl)-5,6,7,8-tetrahydro-4H-pyrazolo[1,5-a]azepin-4-yl)benzamide]: under 0.25 µM.

Regarding `Cc1ccn(CC(=O)N[C@H]2CCCn3nc(-c4ccnc(C(F)(F)F)c4)cc32)n1` [Compound I-423a], the IC50 is over 1 µM. The result for `Cn1nc(C(F)F)nc1C(=O)N[C@H]1CCn2nc(-c3ccnc(C(F)(F)F)c3)cc21` [Compound I-155a, (S)-3-(Difluoromethyl)-1-methyl-N-(2-(2-(trifluoromethyl)pyridin-4-yl)-5,6-dihydro-4H-pyrrolo[1,2-b]pyrazol-4-yl)-1H-1,2,4-triazole-5-carboxamide] reads under 0.25 µM. The result for `Cn1nc(C(F)(F)F)cc1C(=O)NC1CCc2nn(-c3ccnc(C(F)(F)F)c3)cc2C1` (racemic) [Compound I-63, (rac)-1-Methyl-3-(trifluoromethyl)-N-(2-(2-(trifluoromethyl)pyridin-4-yl)-4,5,6,7-tetrahydro-2H-indazol-5-yl)-1H-pyrazole-5-carboxamide] reads under 0.25 µM; that for `COc1cc(-c2cc3n(n2)CCC[C@@H]3NC(=O)c2cc(C(F)(F)F)nn2C)cc(OC)n1` [Compound I-344a], over 1 µM; that for `O=C(N[C@H]1CCCn2nc(-c3ccnc(C(F)(F)F)c3)cc21)c1ccn(C(F)(F)F)n1` [Compound I-382a], under 0.25 µM. The result for `Cc1cccc(C(=O)N[C@@H]2CCCCc3nn(-c4ccnc(C5CC5)c4)cc32)c1` [Compound I-58b] reads 0.5 to 1 µM. `O=C(N[C@H]1CCn2nc(-c3ccnc(C(F)(F)F)c3)cc21)c1cc(F)cc(C2CC2)c1` [Compound I-569a, (S)-3-Cyclopropyl-5-fluoro-N-(2-(2-(trifluoromethyl)pyridin-4-yl)-5,6-dihydro-4H-pyrrolo[1,2-b]pyrazol-4-yl)benzamide] came in with an IC50 of under 0.25 µM. Next, `COc1cc(-c2cc3n(n2)CCC[C@@H]3NC(=O)c2cccc(C#N)c2)c(Cl)cn1` [Compound I-239a, (S)-N-(2-(5-Chloro-2-methoxypyridin-4-yl)-4,5,6,7-tetrahydropyrazolo[1,5-a]pyridin-4-yl)-3-cyanobenzamide]: under 0.25 µM.
